Reference: PubChem BioAssay AID330 (DTP/NCI, 2004)
Where “and” joins values, the source holds several entries; their conditions need not be identical. Equal values may be shown once. Inconclusive results and toxic doses are left out. Rule for the calls: active = survival T/C of 150% or more; inactive = T/C below 125% in these data.

Tested on: P388 leukemia ip, CD2F1 mice, survival T/C
Experiment: NCI In Vivo Anticancer Drug Screen. Data for tumor model P388 Leukemia (intraperitoneal) in CD2F1 (CDF1) mice
Settings: endpoint: median survival time, higher = longer survival
Procedure, shortened: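 Mice carrying the transplanted tumor received test compound or vehicle. Survival was recorded in each group, and the value is the treated-group measurement divided by that of the vehicle-treated control group.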

[1] = dose: 60.0 mg/kg/injection, schedule: Q01DX005 (ip), vehicle: Klucel (hydroxypropylcellulose) (HPC)
[2] = dose: 120.0 mg/kg/injection, schedule: Q01DX005 (ip), vehicle: Klucel (hydroxypropylcellulose) (HPC)
[3] = dose: 240.0 mg/kg/injection, schedule: Q01DX005 (ip), vehicle: Klucel (hydroxypropylcellulose) (HPC)
[4] = dose: 25.0 mg/kg/injection, schedule: Q01DX009 (ip), vehicle: saline with Tween-80
[5] = dose: 50.0 mg/kg/injection, schedule: Q01DX009 (ip), vehicle: saline with Tween-80
[6] = dose: 100.0 mg/kg/injection, schedule: Q01DX009 (ip), vehicle: saline with Tween-80
[7] = dose: 200.0 mg/kg/injection, schedule: Q01DX009 (ip), vehicle: saline with Tween-80
[8] = dose: 50.0 mg/kg/injection, schedule: Q01DX005 (ip), vehicle: Klucel (hydroxypropylcellulose) (HPC)
[9] = dose: 100.0 mg/kg/injection, schedule: Q01DX005 (ip), vehicle: Klucel (hydroxypropylcellulose) (HPC)
[10] = dose: 200.0 mg/kg/injection, schedule: Q01DX005 (ip), vehicle: Klucel (hydroxypropylcellulose) (HPC)
[11] = dose: 50.0 mg/kg/injection, schedule: Q01DX009 (ip), vehicle: Klucel (hydroxypropylcellulose) (HPC)
[12] = dose: 50.0 mg/kg/injection, schedule: Q01DX009 (ip), vehicle: saline
[13] = dose: 100.0 mg/kg/injection, schedule: Q01DX009 (ip), vehicle: saline
[14] = dose: 200.0 mg/kg/injection, schedule: Q01DX009 (ip), vehicle: saline
[15] = dose: 60.0 mg/kg/injection, schedule: Q01DX005 (ip), vehicle: saline with Tween-80
[16] = dose: 120.0 mg/kg/injection, schedule: Q01DX005 (ip), vehicle: saline with Tween-80
[17] = dose: 100.0 mg/kg/injection, schedule: Q01DX001 (ip), vehicle: Klucel (hydroxypropylcellulose) (HPC)
[18] = dose: 200.0 mg/kg/injection, schedule: Q01DX001 (ip), vehicle: Klucel (hydroxypropylcellulose) (HPC)
[19] = dose: 400.0 mg/kg/injection, schedule: Q01DX001 (ip), vehicle: Klucel (hydroxypropylcellulose) (HPC)
[20] = dose: 240.0 mg/kg/injection, schedule: Q01DX005 (ip), vehicle: saline with Tween-80

Measured: T/C

CCCCCCCCCC(=O)Oc1cccc2c1CC(C[Se]c1ccccc1)C(=O)O2 (stereo not drawn)
inactive: dose: 1.88 mg/kg/injection, schedule: Q01DX005 (ip), vehicle: saline with Tween-80 97 % of control | dose: 3.75 mg/kg/injection, schedule: Q01DX005 (ip), vehicle: saline with Tween-80 101 % of control | dose: 7.5 mg/kg/injection, schedule: Q01DX005 (ip), vehicle: saline with Tween-80 89 % of control and 91 % of control

Cc1cc(=O)n(-c2ccc(F)cc2)[nH]1
inactive: [1] 89 % of control | [2] 92 % of control | [3] 90 % of control

C(=C\C1CC2CCCN2O1)/c1ccccc1 (stereo not drawn)
inactive: [4] 90 % of control | [5] 105 % of control | [6] 100 % of control | [7] 107 % of control

O=C1C=C(Cl)C(=O)C2=C1CCCC2
inactive: dose: 6.25 mg/kg/injection, schedule: Q04DX002 (ip), vehicle: saline with Tween-80 97 % of control

CCC(CO)[N-]CC[N-]C(CC)CO.CCC(CO)[N-]CC[N-]C(CC)CO.O.O.[Pd+2].[Pd+2] (stereo not drawn)
inactive: [8] 91 % of control | [9] 97 % of control | [10] 98 % of control

CCN1C(=O)C(C)C(=O)N(C)C1=O (stereo not drawn)
inactive: dose: 60.0 mg/kg/injection, schedule: Q01DX005 (ip), vehicle: saline 110 % of control | dose: 120.0 mg/kg/injection, schedule: Q01DX005 (ip), vehicle: saline 100 % of control | dose: 240.0 mg/kg/injection, schedule: Q01DX005 (ip), vehicle: saline 100 % of control

O=C(NC1(N2CCOCC2)CC1)c1ccc(Cl)cc1
inactive: [1] 88 % of control | [2] 103 % of control | [3] 103 % of control

Fc1ccc(CSC(=S)Nc2ccc(F)c(F)c2)cc1
inactive: [11] 111 % of control | [12] 87 % of control | [13] 107 % of control | [14] 108 % of control

CSc1nc(NC2OCC(OC(C)=O)C(OC(C)=O)C2OC(C)=O)c(N=C(C)C(C)=O)c(=O)n1C (stereo not drawn)
inactive: [15] 100 % of control | [16] 87 % of control

CC1(C)/C(=C/c2ccccc2)C(=O)c2ccccc21
inactive: [6] 90 % of control | [7] 100 % of control | dose: 400.0 mg/kg/injection, schedule: Q01DX009 (ip), vehicle: saline with Tween-80 100 % of control

NC(=O)c1c(Cl)nc2n1CCS2
inactive: [1] 94 % of control | [17] 107 % of control | [2] 95 % of control | [18] 100 % of control | [3] 88 % of control | [19] 109 % of control

COC(=O)/C(=C1/OC(=O)C(c2ccc(Cl)cc2)=C1O)c1ccc(OC)cc1
inactive: [8] 102 % of control | [9] 94 % of control

Cc1ccc(S(=O)(=O)OCCN(CCN(CCOS(=O)(=O)c2ccc(C)cc2)c2ccccc2)c2ccccc2)cc1
inactive: dose: 100.0 mg/kg/injection, schedule: Q04DX003 (ip), vehicle: Klucel (hydroxypropylcellulose) (HPC) 99 % of control | dose: 200.0 mg/kg/injection, schedule: Q04DX003 (ip), vehicle: Klucel (hydroxypropylcellulose) (HPC) 110 % of control | dose: 400.0 mg/kg/injection, schedule: Q04DX003 (ip), vehicle: Klucel (hydroxypropylcellulose) (HPC) 101 % of control

COc1nccn2c(C)nnc12
inactive: [17] 100 % of control | [18] 100 % of control

C=CCNC(=S)N=Nc1c(O)[nH]c2ccccc12
inactive: [5] 94 % of control | [6] 91 % of control | [7] 88 % of control

COC1=C(C(C2=C(OC)CC(C)(C)CC2=O)c2ccc3c(c2)OCO3)C(=O)CC(C)(C)C1
inactive: [15] 102 % of control | [16] 111 % of control | [20] 101 % of control

CCNC(C)(C)C(SSSC(c1ccc(C(F)(F)F)cc1)C(C)(C)NCC)c1ccc(C(F)(F)F)cc1 (stereo not drawn)
inactive: dose: 25.0 mg/kg/injection, schedule: Q04DX003 (ip), vehicle: saline 107 % of control | dose: 50.0 mg/kg/injection, schedule: Q04DX003 (ip), vehicle: saline 107 % of control | dose: 100.0 mg/kg/injection, schedule: Q04DX003 (ip), vehicle: saline 103 % of control

NS(=O)(=O)c1cc(C(=O)O)cc(NC(=O)CCCCl)c1Oc1ccccc1
inactive: [5] 103 % of control and 123 % of control | [6] 100 % of control and 96 % of control | [7] 104 % of control and 123 % of control

COc1cc(/C=N\NC(=O)C(C)SC(C)C(=O)N/N=C/c2cc(OC)c(OC)c(OC)c2)cc(OC)c1OC (stereo not drawn)
inactive: [8] 93 % of control | [9] 88 % of control | [10] 90 % of control

CCCCCCCCC1=CCc2c1ccc1c2ccc2cc(C(=O)Oc3cccc(N(CCCl)CCCl)c3)ccc21
inactive: dose: 100.0 mg/kg/injection, schedule: Q01DX001 (ip), vehicle: saline 99 % of control | dose: 200.0 mg/kg/injection, schedule: Q01DX001 (ip), vehicle: saline 100 % of control | dose: 400.0 mg/kg/injection, schedule: Q01DX001 (ip), vehicle: saline 100 % of control

COc1ccc(C)cc1N=NC1C(=O)N(C(=O)CC(=O)Nc2cccc(C)c2)N=C1C (stereo not drawn)
inactive: [1] 95 % of control | [2] 89 % of control | [3] 90 % of control

COc1cc(C(=O)NC2CC2)cc(OC)c1OC
inactive: [4] 101 % of control | [5] 104 % of control | [6] 107 % of control | [7] 110 % of control

COc1ccc2c(c1)CCC1C2=NN=C2CCCC21 (stereo not drawn)
inactive: [17] 97 % of control | [18] 88 % of control | [19] 92 % of control

Nc1[nH][nH]c(=O)c1N
inactive: dose: 50.0 mg/kg/injection, schedule: Q01DX005 (ip), vehicle: saline 101 % of control | dose: 100.0 mg/kg/injection, schedule: Q01DX005 (ip), vehicle: saline 101 % of control | dose: 200.0 mg/kg/injection, schedule: Q01DX005 (ip), vehicle: saline 107 % of control

COc1ccccc1NC(=O)C1=C(C)NC(C)=C(C(=O)Nc2ccccc2OC)C1c1ccc(OC)c(OC)c1
inactive: [15] 103 % of control | [16] 99 % of control | [20] 94 % of control

CN(C)CCCOC(=O)Cc1cccc2c(=O)cc(-c3ccccc3)oc12
inactive: [12] 101 % of control | [13] 99 % of control | [14] 118 % of control

CCCC[N+](CCCC)=c1ccc2nc3c(C)cc(N(CC)CC)cc3sc-2c1
inactive: dose: 0.75 mg/kg/injection, schedule: Q01DX005 (ip), vehicle: saline 111 % of control | dose: 1.5 mg/kg/injection, schedule: Q01DX005 (ip), vehicle: saline 112 % of control | dose: 3.0 mg/kg/injection, schedule: Q01DX005 (ip), vehicle: saline 118 % of control and 120 % of control

O=C(Nc1cccc2ccccc12)C1C(=O)C(=O)N(c2cccc3ccccc23)C1=O (stereo not drawn)
inactive: [11] 103 % of control | dose: 100.0 mg/kg/injection, schedule: Q01DX009 (ip), vehicle: Klucel (hydroxypropylcellulose) (HPC) 105 % of control | dose: 200.0 mg/kg/injection, schedule: Q01DX009 (ip), vehicle: Klucel (hydroxypropylcellulose) (HPC) 100 % of control

CC1(C)CC(=O)C([Se]C2=C(O)CC(C)(C)CC2=O)=C(O)C1
inactive: dose: 6.25 mg/kg/injection, schedule: Q01DX009 (ip), vehicle: saline 101 % of control | dose: 12.5 mg/kg/injection, schedule: Q01DX009 (ip), vehicle: saline 104 % of control | dose: 25.0 mg/kg/injection, schedule: Q01DX009 (ip), vehicle: saline 111 % of control
